# Reference: publication PMC9405973, “Altered Conformational Landscape upon Sensing Guanine Nucleotides in a Disease Mutant of Elongation Factor-like 1 (EFL1) GTPase” (Biomolecules, 2022)
# Biological target: T1, Efl1 wild type in complex with Sdo1 and 60S subunits (Saccharomyces cerevisiae, UniProt P53893)
# T1 construct: made in house; host or cells: Efl1: Saccharomyces cerevisiae; Sdo1: Escherichia coli C41; 60S subunits purified from S. cerevisiae strain JD1370
# T1 sequence (P53893 1-1110): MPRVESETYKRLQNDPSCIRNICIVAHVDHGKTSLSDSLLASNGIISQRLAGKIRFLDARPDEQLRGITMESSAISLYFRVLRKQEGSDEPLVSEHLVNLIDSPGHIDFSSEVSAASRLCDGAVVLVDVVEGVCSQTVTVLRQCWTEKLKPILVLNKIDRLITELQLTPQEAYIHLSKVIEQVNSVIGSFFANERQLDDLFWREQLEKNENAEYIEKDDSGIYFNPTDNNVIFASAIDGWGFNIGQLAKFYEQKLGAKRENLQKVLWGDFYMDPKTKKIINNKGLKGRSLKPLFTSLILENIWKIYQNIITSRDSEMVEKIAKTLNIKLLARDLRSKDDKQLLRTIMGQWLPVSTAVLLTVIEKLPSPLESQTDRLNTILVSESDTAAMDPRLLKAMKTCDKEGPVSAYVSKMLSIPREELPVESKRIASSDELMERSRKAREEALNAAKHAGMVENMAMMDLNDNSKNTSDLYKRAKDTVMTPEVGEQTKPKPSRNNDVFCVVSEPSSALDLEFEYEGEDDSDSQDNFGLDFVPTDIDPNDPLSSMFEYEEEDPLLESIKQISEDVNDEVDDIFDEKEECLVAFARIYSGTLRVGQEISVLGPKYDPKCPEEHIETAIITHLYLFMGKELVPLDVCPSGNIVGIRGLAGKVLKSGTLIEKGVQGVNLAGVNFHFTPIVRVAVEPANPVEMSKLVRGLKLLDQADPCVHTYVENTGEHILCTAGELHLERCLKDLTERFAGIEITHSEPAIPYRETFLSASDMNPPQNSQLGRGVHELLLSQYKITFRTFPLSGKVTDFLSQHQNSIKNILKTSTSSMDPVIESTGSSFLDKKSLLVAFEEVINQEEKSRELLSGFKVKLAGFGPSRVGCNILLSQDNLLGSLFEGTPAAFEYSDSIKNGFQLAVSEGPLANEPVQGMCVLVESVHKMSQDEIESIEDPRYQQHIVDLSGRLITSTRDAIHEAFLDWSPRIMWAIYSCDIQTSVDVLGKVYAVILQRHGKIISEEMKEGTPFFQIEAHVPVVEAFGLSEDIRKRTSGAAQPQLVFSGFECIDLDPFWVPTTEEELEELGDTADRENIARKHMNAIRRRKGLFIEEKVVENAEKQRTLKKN
# T1 sequence (Q07953 1-250 partner): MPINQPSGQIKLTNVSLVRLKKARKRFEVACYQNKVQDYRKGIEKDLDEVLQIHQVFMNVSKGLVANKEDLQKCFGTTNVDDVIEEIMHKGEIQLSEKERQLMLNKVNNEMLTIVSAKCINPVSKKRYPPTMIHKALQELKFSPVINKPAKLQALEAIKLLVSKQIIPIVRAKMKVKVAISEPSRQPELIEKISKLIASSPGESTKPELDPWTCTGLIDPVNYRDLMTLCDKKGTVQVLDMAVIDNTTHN
# Assay: Steady state fluorescence binding of mant-GTP to Efl1 wild type in complex with Sdo1 and 60S subunits
# Details: 25 °C, one-binding-site model; read-out: dissociation constant (Kd)
# Protocol: We measured the binding of different Efl1 constructs present in complex with Sdo1 and 60S subunits to the fluorescence GTP analogue, mant-GTP, by following the increase in the fluorescence signal after excitation at 355 nm. Fluorescence intensities were plotted as a function of increasing nucleotide concentrations, and the dissociation constant (Kd) was calculated by fitting the data to a one-binding-site model (Supplementary Figure S1B).
# Hydrolysis of GTP was measured using the Enzchek Phosphate Assay kit (Molecular Probes) as described by Webb. Standard reactions consisted of 100 µL containing 6 µM of Efl1 R1086Q and Efl1 L910K, 0.3 mM MESG, 1.0 U purine nucleoside phosphorylase (PNP) and the indicated amounts of GTP. […]
# Reactions were initiated and the GTPase was added after 3 min. Time courses were followed by recording the change in absorbance at 360 nm in a Cary 60 UV -Vis spectrophotometer (Agilent Technologies). Background absorbance was recorded prior to the addition of the GTPase and subtracted from the sample signals. The slope of the measured time courses corresponded to the GTP hydrolysis rate. […] Data were analysed by nonlinear regression to the M ichaelis-Menten equation with the program Origin Version 5.0 (OriginLab, Co., Northampton, MA). […]
# Steady state fluorescence measurements […]
# Maximum emission at 440 nm was replotted as a function of nucleotide concentration and analysed
compound,measurement,value
CNc1ccccc1C(=O)O[C@H]1[C@@H](O)[C@H](n2cnc3c(=O)[nH]c(N)nc32)O[C@@H]1COP(=O)(O)OP(=O)(O)OP(=O)(O)O [mant-GTP],Kd,36 µM
